In patent US20230077362A1 (CORTEVA AGRISCIENCE LLC, priority 2019, published 2023):

What was measured:
[1] = tested on: Cabbage Looper (Trichoplusia ni) ("CL"), second instar larvae; experiment: Bioassay on cabbage looper (CL), 128-well diet tray assay; format: in vivo; settings: for CL rating: Table ABC, species CL, C = not tested, D = no activity noticed; for pest or weed control at 50 µg/cm2: Trichoplusia ni, read-out: CL rating
Procedure, shortened: (§1)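 Mortality (%) is scored well by well after five to seven days at 25° C. on a 14:10 light:dark regime. The value given is the mean of eight wells.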

[2] = tested on: Beet Armyworm (Spodoptera exigua) ("BAW"), second instar larvae; experiment: Bioassay on beet armyworm (BAW), 128-well diet tray assay; format: in vivo; settings: for BAW rating: Table ABC, species BAW, C = not tested, D = no activity noticed; for pest or weed control at 50 µg/cm2: Spodoptera exigua, read-out: BAW rating
Procedure, shortened: as §1

Cc1cc(-c2ncn(-c3ccc(S(F)(F)(F)(F)F)cc3)n2)ccc1NC(=O)/N=C1\SCC(=O)N1c1cccc(C)c1COCC(F)(F)F [Compound J578] was tested, and the CL rating [1] was “A (50-100)” and the BAW rating [2] was “A (50-100)”.

Cc1cc(-c2ncn(-c3ccc(C(F)(F)F)cc3)n2)ccc1NC(=O)/N=C1\SCC(=O)N1c1cccc(C)c1COCC(F)(F)F [Compound J579] was tested, and the CL rating [1] was “A (50-100)” and the BAW rating [2] was “A (50-100)”.

With COc1ccc(COCC(F)(F)F)c(N2C(=O)CS/C2=N\C(=O)Nc2ccc(-c3ncn(-c4ccc(C(F)(F)F)cc4)n3)cc2C)c1 [Compound J580] the CL rating [1] was “A (50-100)” and the BAW rating [2] was “A (50-100)”.

With COc1ccc(COCC(F)(F)F)c(N2C(=O)CS/C2=N\C(=O)Nc2ccc(-c3ncn(-c4ccc(C(F)(F)F)cc4)n3)cc2F)c1 [Compound J581] the CL rating [1] was “A (50-100)” and the BAW rating [2] was “A (50-100)”.

Work on CCOCc1ccc(C)cc1N1C(=O)CS/C1=N\C(=O)Nc1ccc(-c2ncn(-c3ccc(S(F)(F)(F)(F)F)cc3)n2)cc1C#N [Compound J582] yielded a pest or weed control at 50 µg/cm2 [1] of 50 to 100% and a pest or weed control at 50 µg/cm2 [2] of 50 to 100%.

With CCCc1ccc(C)cc1N1C(=O)CS/C1=N\C(=O)Nc1ccc(-c2ncn(-c3ccc(S(F)(F)(F)(F)F)cc3)n2)cc1C#N [Compound J583, (Z)-1-(2-Cyano-4-(1-(4-(pentafluoro-λ^6-sulfaneyl)phenyl)-1H-1,2,4-triazol-3-yl)phenyl)-3-(3-(5-methyl-2-propylphenyl)-4-oxothiazolidin-2-ylidene)urea] the pest or weed control at 50 µg/cm2 [1] was 50 to 100% and the pest or weed control at 50 µg/cm2 [2] was 50 to 100%.

Cc1ccc(OCCC(F)(F)F)c(N2C(=O)CS/C2=N\C(=O)Nc2ccc(-c3ncn(-c4ccc(S(F)(F)(F)(F)F)cc4)n3)cc2C#N)c1 [Compound J584, (Z)-1-(2-Cyano-4-(1-(4-(pentafluoro-λ^6-sulfaneyl)phenyl)-1H-1,2,4-triazol-3-yl)phenyl)-3-(3-(5-methyl-2-(3,3,3-trifluoropropoxy)phenyl)-4-oxothiazolidin-2-ylidene)urea] was tested, and the pest or weed control at 50 µg/cm2 [1] was 50 to 100% and the pest or weed control at 50 µg/cm2 [2] was 50 to 100%.

CC(C)c1ccc(N(C)C)cc1N1C(=O)CS/C1=N\C(=O)Nc1ccc(-c2ncn(-c3ccc(S(F)(F)(F)(F)F)cc3)n2)cc1C#N [Compound J585] was tested, and the CL rating [1] was “A (50-100)” and the BAW rating [2] was “A (50-100)”.

Work on CCOC(C)c1ccc(C)cc1N1C(=O)CS/C1=N\C(=O)Nc1ccc(-c2ncn(-c3ccc(S(F)(F)(F)(F)F)cc3)n2)cc1C#N (stereo not drawn) [Compound J586, (Z)-1-(2-Cyano-4-(1-(4-(pentafluoro-λ^6-sulfaneyl)phenyl)-1H-1,2,4-triazol-3-yl)phenyl)-3-(3-(2-(1-ethoxyethyl)-5-methylphenyl)-4-oxothiazolidin-2-ylidene)urea] yielded a pest or weed control at 50 µg/cm2 [1] of 50 to 100% and a pest or weed control at 50 µg/cm2 [2] of 50 to 100%.

With Cc1cc(COCC(F)(F)F)c(N2C(=O)CS/C2=N\C(=O)Nc2ccc(-c3ncn(-c4ccc(S(F)(F)(F)(F)F)cc4)n3)cc2C#N)cc1C [Compound J587, (Z)-1-(2-Cyano-4-(1-(4-(pentafluoro-λ^6-sulfaneyl)phenyl)-1H-1,2,4-triazol-3-yl)phenyl)-3-(3-(4,5-dimethyl-2-((2,2,2-trifluoroethoxy)methyl)phenyl)-4-oxothiazolidin-2-ylidene)urea] the pest or weed control at 50 µg/cm2 [1] was 50 to 100% and the pest or weed control at 50 µg/cm2 [2] was 50 to 100%.

With COc1cc(COCC(F)(F)F)c(N2C(=O)CS/C2=N\C(=O)Nc2ccc(-c3ncn(-c4ccc(S(F)(F)(F)(F)F)cc4)n3)cc2C#N)cc1OC [Compound J588, (Z)-1-(2-Cyano-4-(1-(4-(pentafluoro-λ^6-sulfaneyl)phenyl)-1H-1,2,4-triazol-3-yl)phenyl)-3-(3-(4,5-dimethoxy-2-((2,2,2-trifluoroethoxy)methyl)phenyl)-4-oxothiazolidin-2-ylidene)urea] the pest or weed control at 50 µg/cm2 [1] was 50 to 100% and the pest or weed control at 50 µg/cm2 [2] was 50 to 100%.

In the case of Cc1ccc(C(C)C)c(N2C(=O)CS/C2=N\C(=O)Nc2ccc(-c3cn(-c4ccc(S(F)(F)(F)(F)F)cc4)cn3)cc2F)c1 [Compound J589, (Z)-1-(2-fluoro-4-(1-(4-(pentafluoro-λ^6-sulfaneyl)phenyl)-1H-imidazol-4-yl)phenyl)-3-(3-(2-isopropyl-5-methylphenyl)-4-oxothiazolidin-2-ylidene)urea], the pest or weed control at 50 µg/cm2 [1] is reported as 50 to 100% and the pest or weed control at 50 µg/cm2 [2] is reported as 50 to 100%.

With CCCc1ccc(C)cc1N1C(=O)CS/C1=N\C(=O)Nc1ccc(-c2cn(-c3ccc(S(F)(F)(F)(F)F)cc3)cn2)cc1F [Compound J590, (Z)-1-(2-Fluoro-4-(1-(4-(pentafluoro-λ^6-sulfaneyl)phenyl)-1H-imidazol-4-yl)phenyl)-3-(3-(5-methyl-2-propylphenyl)-4-oxothiazolidin-2-ylidene)urea] the pest or weed control at 50 µg/cm2 [1] was 50 to 100% and the pest or weed control at 50 µg/cm2 [2] was 50 to 100%.

For COC(C)c1ccc(C)cc1N1C(=O)CS/C1=N\C(=O)Nc1ccc(-c2cn(-c3ccc(S(F)(F)(F)(F)F)cc3)cn2)cc1F (stereo not drawn) [Compound J591, (Z)-1-(2-Fluoro-4-(1-(4-(pentafluoro-λ^6-sulfaneyl)phenyl)-1H-imidazol-4-yl)phenyl)-3-(3-(2-(1-methoxyethyl)-5-methylphenyl)-4-oxothiazolidin-2-ylidene)urea], the pest or weed control at 50 µg/cm2 [1] was 50 to 100% and the pest or weed control at 50 µg/cm2 [2] was 50 to 100%.

For COCc1ccc(C)cc1N1C(=O)CS/C1=N\C(=O)Nc1ccc(-c2cn(-c3ccc(S(F)(F)(F)(F)F)cc3)cn2)cc1F [Compound J592, (Z)-1-(2-Fluoro-4-(1-(4-(pentafluoro-λ^6-sulfaneyl)phenyl)-1H-imidazol-4-yl)phenyl)-3-(3-(2-(methoxymethyl)-5-methylphenyl)-4-oxothiazolidin-2-ylidene)urea], the pest or weed control at 50 µg/cm2 [1] was 50 to 100% and the pest or weed control at 50 µg/cm2 [2] was 50 to 100%.

With CCOC(C)c1ccc(C)cc1N1C(=O)CS/C1=N\C(=O)Nc1ccc(-c2cn(-c3ccc(S(F)(F)(F)(F)F)cc3)cn2)cc1F (stereo not drawn) [Compound J594, (Z)-1-(3-(2-(1-Ethoxyethyl)-5-methylphenyl)-4-oxothiazolidin-2-ylidene)-3-(2-fluoro-4-(1-(4-(pentafluoro-λ^6-sulfaneyl)phenyl)-1H-imidazol-4-yl)phenyl)urea] the pest or weed control at 50 µg/cm2 [1] was 50 to 100% and the pest or weed control at 50 µg/cm2 [2] was 50 to 100%.

CCCOc1ccc(C)cc1N1C(=O)CS/C1=N\C(=O)Nc1ccc(-c2cn(-c3ccc(S(F)(F)(F)(F)F)cc3)cn2)cc1F [Compound J595, (Z)-1-(2-Fluoro-4-(1-(4-(pentafluoro-λ^6-sulfaneyl)phenyl)-1H-imidazol-4-yl)phenyl)-3-(3-(5-methyl-2-propoxyphenyl)-4-oxothiazolidin-2-ylidene)urea] was tested, and the pest or weed control at 50 µg/cm2 [1] was 50 to 100% and the pest or weed control at 50 µg/cm2 [2] was 50 to 100%.

Cc1ccc(OCC(F)(F)F)c(N2C(=O)CS/C2=N\C(=O)Nc2ccc(-c3cn(-c4ccc(S(F)(F)(F)(F)F)cc4)cn3)cc2F)c1 [Compound J596, (Z)-1-(2-Fluoro-4-(1-(4-(pentafluoro-λ^6-sulfaneyl)phenyl)-1H-imidazol-4-yl)phenyl)-3-(3-(5-methyl-2-(2,2,2-trifluoroethoxy)phenyl)-4-oxothiazolidin-2-ylidene)urea] gave a pest or weed control at 50 µg/cm2 [1] of 50 to 100% and a pest or weed control at 50 µg/cm2 [2] of 50 to 100%.

Cc1ccc(OCCC(F)(F)F)c(N2C(=O)CS/C2=N\C(=O)Nc2ccc(-c3cn(-c4ccc(S(F)(F)(F)(F)F)cc4)cn3)cc2F)c1 [Compound J597, (Z)-1-(2-Fluoro-4-(1-(4-(pentafluoro-λ^6-sulfaneyl)phenyl)-1H-imidazol-4-yl)phenyl)-3-(3-(5-methyl-2-(3,3,3-trifluoropropoxy)phenyl)-4-oxothiazolidin-2-ylidene)urea] gave a pest or weed control at 50 µg/cm2 [1] of 50 to 100% and a pest or weed control at 50 µg/cm2 [2] of 50 to 100%.

Cc1ccc(COCC(F)(F)F)c(N2C(=O)CS/C2=N\C(=O)Nc2ccc(-c3cn(-c4ccc(S(F)(F)(F)(F)F)cc4)cn3)cc2F)c1 [Compound J598, (Z)-1-(2-Fluoro-4-(1-(4-(pentafluoro-λ^6-sulfaneyl)phenyl)-1H-imidazol-4-yl)phenyl)-3-(3-(5-methyl-2-((2,2,2-trifluoroethoxy)methyl)phenyl)-4-oxothiazolidin-2-ylidene)urea] gave a pest or weed control at 50 µg/cm2 [1] of 50 to 100% and a pest or weed control at 50 µg/cm2 [2] of 50 to 100%.

Work on COC(c1ccc(C)cc1N1C(=O)CS/C1=N\C(=O)Nc1ccc(-c2cn(-c3ccc(S(F)(F)(F)(F)F)cc3)cn2)cc1F)C(F)(F)F (stereo not drawn) [Compound J599, (Z)-1-(2-Fluoro-4-(1-(4-(pentafluoro-λ^6-sulfaneyl)phenyl)-1H-imidazol-4-yl)phenyl)-3-(3-(5-methyl-2-(2,2,2-trifluoro-1-methoxyethyl)phenyl)-4-oxothiazolidin-2-ylidene)urea] yielded a pest or weed control at 50 µg/cm2 [1] of 50 to 100% and a pest or weed control at 50 µg/cm2 [2] of 50 to 100%.

Work on CN(C)c1ccc(C(F)(F)F)c(N2C(=O)CS/C2=N\C(=O)Nc2ccc(-c3cn(-c4ccc(S(F)(F)(F)(F)F)cc4)cn3)cc2F)c1 [Compound J600, (Z)-1-(3-(5-(Dimethylamino)-2-(trifluoromethyl)phenyl)-4-oxothiazolidin-2-ylidene)-3-(2-fluoro-4-(1-(4-(pentafluoro-λ^6-sulfaneyl)phenyl)-1H-imidazol-4-yl)phenyl)urea] yielded a pest or weed control at 50 µg/cm2 [1] of 50 to 100% and a pest or weed control at 50 µg/cm2 [2] of 50 to 100%.

COCc1ccc(N(C)C)cc1N1C(=O)CS/C1=N\C(=O)Nc1ccc(-c2cn(-c3ccc(S(F)(F)(F)(F)F)cc3)cn2)cc1F [Compound J601, (Z)-1-(3-(5-(Dimethylamino)-2-(methoxymethyl)phenyl)-4-oxothiazolidin-2-ylidene)-3-(2-fluoro-4-(1-(4-(pentafluoro-λ^6-sulfaneyl)phenyl)-1H-imidazol-4-yl)phenyl)urea] showed a pest or weed control at 50 µg/cm2 [1] of 50 to 100% and a pest or weed control at 50 µg/cm2 [2] of 50 to 100%.

Work on CCCc1ccc(N(C)C)cc1N1C(=O)CS/C1=N\C(=O)Nc1ccc(-c2cn(-c3ccc(S(F)(F)(F)(F)F)cc3)cn2)cc1F [Compound J602, (Z)-1-(3-(5-(Dimethylamino)-2-propylphenyl)-4-oxothiazolidin-2-ylidene)-3-(2-fluoro-4-(1-(4-(pentafluoro-λ^6-sulfaneyl)phenyl)-1H-imidazol-4-yl)phenyl)urea] yielded a pest or weed control at 50 µg/cm2 [1] of 50 to 100% and a pest or weed control at 50 µg/cm2 [2] of 50 to 100%.
